Measurements published in patent publication US20260217701A1, “SELECTIVE BET INHIBITORS AND USES THEREOF” (Tay Therapeutics Limited, priority 2022, published 2026).
Where “and” joins values, the source holds several entries; their conditions need not be identical. Equal values may be shown once. Entries after “also recorded” stand apart in the source; their conditions may differ. Read-outs that look alike come from different tables or passages of the source.

How the values were obtained:
[1] = tested on: Col1a1, TGB-b1, MCP-1, IL-1b, IL-6, IL-17, TNF-α, Timp1; test: UUO study: tissue RNA levels of biomarkers; format: in vivo, rats
From the text: Tables 29A-29B and FIGS. 28A-28B show tissue RNA levels of various biomarkers (Col1a1, TGB-b1, MCP-1, IL-1b, IL-6, IL-17, TNF-α, and Timp1) in sham rats (black bar in FIG. 28A; square shape in FIG. 28B), UUO rats treated with vehicle (grey bar in FIG. 28A; circle shape in FIG. 28B), and UUO rats treated with Compound A (white bar in FIG. 28A; triangle shape in FIG. 28B). […] FIG. 28C further illustrates gene expression levels of Col1a1, TGB-b1, IL-1b, IL-17, MCP-1, and IL-6 relative to the vehicle control. […] To place this reduction in context, IL-6 is said to be a significant contributor to a continued inflammatory response in certain nephritis conditions.

[2] = UUO study: serum urea levels; format: in vivo; settings: UUO rats
From the text: Tables 30A-30B and FIG. 27A depict serum urea levels in sham rats (black bar), UUO rats treated with vehicle (grey bar), and UUO rats treated with Compound A (white bar).

[3] = tested on: lupus; test: SLE (lupus) model: blood urea nitrogen (BUN) in serum; format: in vivo, MRL/MpJ-Faslpr mice; settings: Week 19
Protocol: (§1) Female MRL/MpJ-Faslpr mice (The Jackson Laboratory) were used to assess the efficacy of Compound A in treating lupus. Starting when animals were 10 weeks of age, protein concentration in urine was measured using urine dipsticks.
At the start of the study, each group in the study had two animals that were 9 weeks old, and all others were 10 weeks old. Dosing of all animals with the test compounds began when the older animals were 11 weeks old. Starting on Day 1, in Groups 1-4, vehicle or Compound A was administered per os (PO) […] (QD) as described above in Table 33. […] Dosing was at a consistent time each dosing day throughout the study.
(§2) Compound A may be formulated as illustrated in Experimental Method A (see Table 2E.). […] A stock solution of Compound A in DMSO (stock solution concentration of Compound A of 40 mg/mL) was prepared and aliquots for weekly preparations were frozen at −20° C. On each preparation day, a stock solution aliquot was thawed and diluted with other vehicle components to the desired concentration. Formulated Compound A and vehicle were at room temperature for dosing.
(§3) The study began when the older animals were 11 weeks old, and concluded when the older animals were 19 weeks old. Body weight was recorded once a week, with the exception of two weight measurements taken the first week of the study (when the older animals were 11 weeks old). Proteinuria was measured in the urine of animals with urine dipsticks once a week, starting when the older animals were 10 weeks old. […] Blood samples were taken retro-orbitally at the start of the study to establish a baseline (15 animals, 3 per group), and when the older animals were 16 weeks (all animals) and when animals were 19 weeks (all animals) at the conclusion of the study. Blood urea nitrogen (BUN) was measured in all animals at study termination in blood samples. After blood collection, animals were euthanized, perfused with PBS, and the left kidneys were collected and weighed and fixed in 10% buffered formalin. Left kidneys were then processed to a formalin-fixed, paraffin-embedded (FFPE) block, and histology was analyzed in Periodic Acid-Schiff-stained sections (1 section per slide), using the criteria described in Alperovich et al., Lupus, 16:18-24 (2007). Right kidneys were weighed and snap-frozen at −80° C. Spleens were also collected and weighed. SLE in animals treated with a BET inhibitor and vehicle.
BUN provides important information about how well kidneys are working. A BUN test measures the amount of urea nitrogen in the blood and indicates how much urea has been processed by the kidneys and is indicative of renal competency. Urea is a waste product that is excreted in urine.

[4] = tested on: anti-dsDNA antibodies; test: SLE (lupus) model: anti-dsDNA antibodies in serum by ELISA; format: in vivo, MRL/MpJ-Faslpr mice
Protocol: as §1
At the start of the study, each group in the study had two animals that were 9 weeks old, and all others were 10 weeks old. Dosing of all animals with the test compounds began when the older animals were 11 weeks old. […] […] Dosing was at a consistent time each dosing day throughout the study.
as §2, §3
Anti-dsDNA antibody test measures the amount of antibody to double-stranded deoxyribonucleic acid (anti-dsDNA) that may be present in the blood. Anti-dsDNA antibodies are highly specific markers of SLE as these antibodies are not thought to be present in other kinds of autoimmune disorder.

[5] = tested on: gastrointestinal mucosa / goblet cells; test: Gastrointestinal histopathology (Dog PK Study #4); format: in vivo; settings: healthy beagle dogs; 10 mg/kg; Day 15
Protocol: Oral pan-BD BET inhibitors are known to negatively impact gastrointestinal mucosa through goblet cell toxicity, leading to related gastrointestinal adverse events in the clinic (Faivre et al., Nature, 578:306-310 (2020)). Therefore, the impact of Compound A on gastrointestinal toxicity and the mucosa was assessed in healthy beagle dogs as part of Dog PK Study #4, outlined in Experimental Method B.
Following completion of Dog PK study #4 on Day 15, animals were euthanized, and the large and small intestines were collected and fixed in 10% neutral buffered formalin. The tissues were then removed from the fixative, processed, embedded in paraffin, sectioned, and stained with hematoxylin and eosin, prior to microscopic examination.

[6] = biological target: T1, BRD4 BD1 (Homo sapiens, UniProt O60885); test: NanoBRET bromodomain assay, NanoLuc-BRD4-BD1 in HEK293 cells; format: binding
T1 construct: HEK293 cells were transfected using NanoLuc-BRD4-BD1 or NanoLuc-BRD4-BD2 fusion vectors

[7] = Rat PK study #4 (Compound A PO 0.2 and 1.0 mg/kg, propylene glycol formulation); format: in vivo, Lewis rats; settings: 1 mg/kg and 10 mg/kg doses, rats
[8] = UUO rats + Compound A, N=8, relative to UUO + Vehicle = 1.00
[9] = UUO rats, tissue, Compound A 10mg/kg QD, individual animals, 10 mg/kg

Compound: Cn1cc(-c2ccccc2)c(-c2cn(C)c(=O)c3[nH]c(-c4cnn(C(F)(F)F)c4)cc23)cc1=O [Compound A, 6-methyl-4-(1-methyl-2-oxo-5-phenyl-1,2-dihydropyridin-4-yl)-2-(1-(trifluoromethyl)-1H-pyrazol-4-yl)-1,6-dihydro-7H-pyrrolo[2,3-c]pyridin-7-one]
- Col1a1 RNA level, Mean ± SEM [1, 8]: 0.39 ± 0.04
- IL-1b RNA level, Mean ± SEM [1, 8]: 0.31 ± 0.03
- IL-6 RNA level, Mean ± SEM [1, 8]: 0.11 ± 0.02
- IL-17 RNA level, Mean ± SEM [1, 8]: 0.35 ± 0.07
- MCP-1 RNA level, Mean ± SEM [1, 8]: 0.33 ± 0.05
- TGF-b1 RNA level, Mean ± SEM [1, 8]: 0.52 ± 0.05
- TNF-a RNA level, Mean ± SEM [1, 8]: 1.00 ± 0.11
- Timp1 RNA level, Mean ± SEM [1, 8]: 0.54 ± 0.09
- Col1a1 RNA level, Normalized Fold Change [1, 9]: 0.51 and 0.31 and 0.19 and 0.50 (2×) and 0.40 and 0.34 and 0.41
- IL-1b RNA level, Normalized Fold Change [1, 9]: 0.37 and 0.28 and 0.24 (3×) and 0.45 and 0.23 and 0.40
- IL-6 RNA level, Normalized Fold Change [1, 9]: 0.11 (2×) and 0.09 and 0.04 and 0.14 and 0.18 and 0.13 and 0.05
- IL-17 RNA level, Normalized Fold Change [1, 9]: 0.37 and 0.14 and 0.26 and 0.51 and 0.12 and 0.45 and 0.72 and 0.20
- MCP-1 RNA level, Normalized Fold Change [1, 9]: 0.48 and 0.24 and 0.18 and 0.34 and 0.44 and 0.25 and 0.50 and 0.20
- TGF-b1 RNA level, Normalized Fold Change [1, 9]: 0.71 and 0.42 and 0.28 and 0.58 and 0.64 (2×) and 0.40 and 0.50
- TNF-a RNA level, Normalized Fold Change [1, 9]: 1.50 and 1.16 and 1.00 and 0.79 and 1.05 and 0.62 and 1.20 and 0.64
- Timp1 RNA level, Normalized Fold Change [1, 9]: 0.83 and 0.41 and 0.36 and 0.72 (2×) and 0.66 and 0.09 and 0.52
- Tissue RNA level of TNF-α ([1]; UUO rats, 10 mg/kg): no observable effect
- Tissue RNA levels of Col1a1, TGB-b1, MCP-1, IL-1b, IL-6, IL-17, Timp1 ([1]; UUO rats, 10 mg/kg PO QD, vs vehicle, 10 mg/kg): reduced levels of Colla1, TGB-b1, MCP-1, IL-1b, IL-6, IL-17, and Timp1; also recorded: markedly lower
- Serum urea levels, difference between experimental groups ([2]; 10 mg/kg): No significant differences
- Serum Urea (Mean + S.D.) ([2]; 10 mg/kg QD): 5.67 ± 0.71 mmol/L
- Serum Urea ([2]; Compound A 10 mg/kg QD, individual animals, 10 mg/kg): 5.72 mmol/L and 5.03 mmol/L and 5.64 mmol/L and 6.28 mmol/L and 5.22 mmol/L and 4.77 mmol/L and 6.97 mmol/L and 5.71 mmol/L
- BUN serum concentration ([3]; Compound A 1 mg/kg PO QD): 18.0 mg/dL
- BUN serum concentration ([3]; Compound A 3 mg/kg PO QD): 16.8 mg/dL
- BUN serum concentration ([3]; Compound A 10 mg/kg PO QD): 11.0 mg/dL
- Blood urea nitrogen (BUN) concentration in serum ([3]; highest dose (10 mg/mL)): 11 mg/dL
- Anti-dsDNA Antibodies in serum, mean ([4]; Compound A 1 mg/kg PO QD, Week 16): 240 units/mL
- Anti-dsDNA Antibodies in serum, mean ([4]; Compound A 1 mg/kg PO QD, Week 19): 149 units/mL
- Anti-dsDNA Antibodies in serum, mean ([4]; Compound A 3 mg/kg PO QD, Week 16): 112 units/mL
- Anti-dsDNA Antibodies in serum, mean ([4]; Compound A 3 mg/kg PO QD, Week 19): 94 units/mL
- Anti-dsDNA Antibodies in serum, mean ([4]; Compound A 10 mg/kg PO QD, Week 16): 47 units/mL
- Anti-dsDNA Antibodies in serum, mean ([4]; Compound A 10 mg/kg PO QD, Week 19): 57 units/mL
- Anti-dsDNA antibodies in serum ([4]; Week 16, 1 mg/mL): did not appear to be effective
- Anti-dsDNA antibodies in serum ([4]; Week 16 and Week 19, 3 mg/mL): positive effect in reducing levels
- Anti-dsDNA antibodies in serum versus Vehicle group ([4]; Week 16 and Week 19, Compound A (10 mg/mL) and Cyclophosphamide): effective in reducing levels to well below that seen with the Vehicle administered group
- Anti-dsDNA antibodies in serum ([4]; Week 19, 1 mg/mL): effective in reducing the levels
- Effect on gastrointestinal villus morphology or goblet cell number [5]: no deleterious effect
- EC50 ([6]; previously determined, reference level for rat plasma concentrations (FIG. 4D), read-out: free EC50 BD1 (converted)): 182 µM
- EC50 ([6]; reference level for dog plasma concentrations (Dog PK study #4), read-out: free EC50 BD1 BRD4): 139 µM
- duration of exposure above the free EC50 BD2 BRD4 [7]: 24 h
